# Experimental data from paper PMC11354514, “Synthesis and Anti-Cancer Activity of the Novel Selective Glucocorticoid Receptor Agonists of the Phenylethanolamine Series” (International Journal of Molecular Sciences, 2024).
# Like-named read-outs stand apart in the source and are kept apart here.
# Biological target: T1, glucocorticoid receptor (GR) (Homo sapiens, UniProt P04150)
# T1 construct: gene NR3C1
# T1 sequence (P04150 1-777): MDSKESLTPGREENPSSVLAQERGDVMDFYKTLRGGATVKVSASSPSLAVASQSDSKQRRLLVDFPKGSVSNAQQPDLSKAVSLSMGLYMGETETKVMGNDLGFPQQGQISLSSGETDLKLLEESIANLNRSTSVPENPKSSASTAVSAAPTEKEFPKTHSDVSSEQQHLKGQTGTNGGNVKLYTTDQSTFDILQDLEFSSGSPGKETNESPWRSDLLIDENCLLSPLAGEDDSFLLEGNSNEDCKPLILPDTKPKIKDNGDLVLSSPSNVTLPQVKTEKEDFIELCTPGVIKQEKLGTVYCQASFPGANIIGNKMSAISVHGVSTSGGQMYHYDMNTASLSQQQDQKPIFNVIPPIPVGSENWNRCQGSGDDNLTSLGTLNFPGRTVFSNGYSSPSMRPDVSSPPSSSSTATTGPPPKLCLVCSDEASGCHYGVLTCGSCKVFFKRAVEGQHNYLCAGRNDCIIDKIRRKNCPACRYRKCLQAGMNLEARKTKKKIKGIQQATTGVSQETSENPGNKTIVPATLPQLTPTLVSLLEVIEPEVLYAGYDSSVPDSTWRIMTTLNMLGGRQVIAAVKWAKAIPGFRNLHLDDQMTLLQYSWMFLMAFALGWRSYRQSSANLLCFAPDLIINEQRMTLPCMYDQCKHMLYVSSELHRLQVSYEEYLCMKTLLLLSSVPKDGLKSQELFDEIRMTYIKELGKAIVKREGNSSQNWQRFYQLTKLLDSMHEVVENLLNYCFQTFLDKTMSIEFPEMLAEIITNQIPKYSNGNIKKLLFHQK
# Assay: [3H]Dex competition radioligand binding in whole K562 cells (endogenous GR)
# Type: cell-based
IC50 (read-out: IC50),Structure (SMILES),IC50
0.15 µM,"Oc1ccc(C(O)CN2CCCCC2)cc1 (centres unmarked) [CpdA-03, 4-(1-hydroxy-2-(piperidin-1-yl)ethyl)phenol]",
,"CNCC(Cl)c1ccc(OC(C)=O)cc1 (centres unmarked) [CpdA, 2-(4-acetoxyphenyl)-2-chloro-N-methylethylammonium-chloride]",2.5 µM
